Data: US7625875B2 (priority 2002, dated 2009)
“And” between values parts separate entries of the source, which are not always exact repeats. Equal entries are not always repeated. Where two headings read alike, the source gives them in different places. Marks after values point to notes of the source that are not given here. Starred links: 1 amine or outer side, 2 acyl side, 3 side chain; linkers in the order of their positions; H or OH if unused. Positions of bridges follow the written chain, without caps; N, C: chain ends. Non-standard residues stand in square brackets, D forms with d. Residues, ends and D or L forms follow the SMILES beside them. Chains are numbered I, II in the order given. Actinocin(9to1) = Cc1c2oc3c(C)ccc(C(=O)[*:1])c3nc-2c(C(=O)[*:2])c(N)c1=O; NMeV = CN[C@H](C(=O)O)C(C)C; Sar = CNCC(=O)O

Legend:
[1] = tested on: BVDV (strain I-N-dIns), noncytopathic; assay type: cell-based, bovine viral diarrhea virus; settings: titrated from 0 to 2,000 IU per ml
BVDV [2] = assay type: cell-based, bovine viral diarrhea virus
S405T mutant BVDV = assay type: cell-based, bovine viral diarrhea virus; settings: more sensitive
[3] = tested on: BVDV New York-1 (NY-1) strain; test: MDBK cells persistently infected with BVDV strain New York-1, virus titer; assay type: cell-based, bovine viral diarrhea virus; settings: 200 IU/ml alone
HepG2 cells [4] = test: Incorporation of drug into cellular RNA and DNA; settings: for Incorporated drug amount, DNA / Incorporated drug amount, RNA: 10 μM [3H] drug, 30 hours
HCV = settings: ribavirin alone; cited from earlier work
[5] = tested on: HepG2 human hepatoma cell line; test: Cytotoxicity (cell proliferation) assay, HepG2; settings: rapid cell division; listed as RBV
HepG2 cells [6] = test: Transmission electron microscopy of mitochondrial ultrastructure; settings: 10 μM, 14 days
HepG2 cells [7] = test: Mitochondrial DNA content; assay type: cell-based, human; settings: for mtDNA/nuclear DNA (% of Control): 1 μM
Method: To assess the potential of mCyd to produce mitochondrial toxicity, several in vitro studies were conducted using the human hepatoma cell lines HepG2 or Huh7.
The significance of this finding is unclear, particularly since mCyd is unlikely to attain a plasma concentration of 50 μM in the clinic. For comparison, lactic acid production increases by 100% over control cells in cells treated with 10 μM FIAU (Cui L, Yoon, et al. J. Clin. Invest. 1995; 95:555-563).

human DNA polymerase γ = target: T1, human DNA polymerase γ (Homo sapiens, UniProt P54098); test: biochemical
T1 sequence (P54098 1-1239): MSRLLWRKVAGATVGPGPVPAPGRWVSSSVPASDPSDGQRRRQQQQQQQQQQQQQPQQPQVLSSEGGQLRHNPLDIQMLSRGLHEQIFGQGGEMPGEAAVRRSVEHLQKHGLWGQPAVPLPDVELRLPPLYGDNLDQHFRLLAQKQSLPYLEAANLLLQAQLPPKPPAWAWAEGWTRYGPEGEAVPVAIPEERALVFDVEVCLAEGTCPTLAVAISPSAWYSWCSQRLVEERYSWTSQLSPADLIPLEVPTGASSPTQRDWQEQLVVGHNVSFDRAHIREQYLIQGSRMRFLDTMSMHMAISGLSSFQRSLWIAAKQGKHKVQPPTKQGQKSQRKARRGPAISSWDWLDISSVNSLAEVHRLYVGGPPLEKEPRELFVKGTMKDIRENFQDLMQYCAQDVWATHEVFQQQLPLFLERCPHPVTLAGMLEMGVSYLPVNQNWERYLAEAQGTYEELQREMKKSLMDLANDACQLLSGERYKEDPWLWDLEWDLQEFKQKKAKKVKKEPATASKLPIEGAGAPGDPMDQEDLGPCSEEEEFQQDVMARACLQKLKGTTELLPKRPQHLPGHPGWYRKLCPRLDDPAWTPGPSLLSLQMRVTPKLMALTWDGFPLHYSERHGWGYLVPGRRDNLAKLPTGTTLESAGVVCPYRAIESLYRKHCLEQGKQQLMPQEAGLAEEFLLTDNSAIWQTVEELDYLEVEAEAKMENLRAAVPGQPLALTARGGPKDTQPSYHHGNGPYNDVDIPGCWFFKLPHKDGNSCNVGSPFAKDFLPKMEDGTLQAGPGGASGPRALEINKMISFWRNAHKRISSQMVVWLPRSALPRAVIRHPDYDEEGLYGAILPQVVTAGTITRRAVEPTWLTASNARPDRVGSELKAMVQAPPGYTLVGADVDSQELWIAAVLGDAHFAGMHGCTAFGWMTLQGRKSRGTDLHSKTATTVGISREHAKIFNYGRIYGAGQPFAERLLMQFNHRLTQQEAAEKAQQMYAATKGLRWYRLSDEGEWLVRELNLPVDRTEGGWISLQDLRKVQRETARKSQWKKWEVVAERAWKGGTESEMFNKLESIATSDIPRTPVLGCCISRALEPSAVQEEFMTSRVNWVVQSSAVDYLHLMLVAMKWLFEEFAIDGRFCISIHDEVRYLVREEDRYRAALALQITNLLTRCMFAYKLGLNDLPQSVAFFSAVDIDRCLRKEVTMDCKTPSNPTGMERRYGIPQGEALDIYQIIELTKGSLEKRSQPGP

human DNA polymerase β = human DNA polymerase β (Homo sapiens, UniProt P06746); test: Inhibition of human DNA polymerase β; assay type: biochemical
human DNA polymerase α = human DNA polymerase α (Homo sapiens, UniProt P09884); test: Inhibition of human DNA polymerase α; assay type: biochemical
Sb-1 = test: organism not typed; assay type: cell-based, Sabin type 1 poliomyelitis virus; settings: read-out: Sb-1
YFV = assay type: cell-based, yellow fever virus; settings: Tables 30b, 30k-30o
BVDV [8] = assay type: cell-based, bovine viral diarrhea virus; remark: listed apart in the source
[9] = tested on: MT-4 human T-lymphocyte cells
CVB-2 = test: organism not typed; assay type: cell-based, Coxsackie B-2 virus
[10] = tested on: variety of cytotoxicity tests; test: Exploratory cytotoxicity tests of mUrd (bone marrow, mitochondrial function, incorporation into nucleic acid); assay type: cell-based; settings: high concentrations
REO-1 = test: microbe, parasite or virus in culture; assay type: cell-based, double-stranded RNA Reovirus
[11] = tested on: wide spectrum of other viruses; test: Exploratory cell culture studies of mUrd, other viruses; assay type: cell-based
DENV 2 = test: microbe, parasite or virus in culture; assay type: cell-based, dengue virus; settings: read-out: DENV 2
BVDV [12] = test: Exploratory cell culture studies of mUrd, antiviral efficacy against BVDV; assay type: cell-based, bovine viral diarrhea virus; settings: less potent than mCyd
[13] = Exposure of chimpanzees to mCyd, serum HPLC; settings: after val-mCyd; lower limit of quantification 0.4 μM (100 ng/mL)
WNV = test: microbe, parasite or virus in culture; assay type: cell-based, West Nile virus; settings: read-out: WNV
HepG2 cells [14] = settings: 10 μM; cell type not stated; cited from earlier work
[15] = tested on: Vero 76, African green monkey kidney cells
CVB-3 = assay type: cell-based, Coxsackievirus B-3
CVA-9 = assay type: cell-based, Coxsackievirus A-9
CVB-4 = assay type: cell-based, Coxsackievirus B-4

human DNA polymerase α, sequence (P09884 whole entry): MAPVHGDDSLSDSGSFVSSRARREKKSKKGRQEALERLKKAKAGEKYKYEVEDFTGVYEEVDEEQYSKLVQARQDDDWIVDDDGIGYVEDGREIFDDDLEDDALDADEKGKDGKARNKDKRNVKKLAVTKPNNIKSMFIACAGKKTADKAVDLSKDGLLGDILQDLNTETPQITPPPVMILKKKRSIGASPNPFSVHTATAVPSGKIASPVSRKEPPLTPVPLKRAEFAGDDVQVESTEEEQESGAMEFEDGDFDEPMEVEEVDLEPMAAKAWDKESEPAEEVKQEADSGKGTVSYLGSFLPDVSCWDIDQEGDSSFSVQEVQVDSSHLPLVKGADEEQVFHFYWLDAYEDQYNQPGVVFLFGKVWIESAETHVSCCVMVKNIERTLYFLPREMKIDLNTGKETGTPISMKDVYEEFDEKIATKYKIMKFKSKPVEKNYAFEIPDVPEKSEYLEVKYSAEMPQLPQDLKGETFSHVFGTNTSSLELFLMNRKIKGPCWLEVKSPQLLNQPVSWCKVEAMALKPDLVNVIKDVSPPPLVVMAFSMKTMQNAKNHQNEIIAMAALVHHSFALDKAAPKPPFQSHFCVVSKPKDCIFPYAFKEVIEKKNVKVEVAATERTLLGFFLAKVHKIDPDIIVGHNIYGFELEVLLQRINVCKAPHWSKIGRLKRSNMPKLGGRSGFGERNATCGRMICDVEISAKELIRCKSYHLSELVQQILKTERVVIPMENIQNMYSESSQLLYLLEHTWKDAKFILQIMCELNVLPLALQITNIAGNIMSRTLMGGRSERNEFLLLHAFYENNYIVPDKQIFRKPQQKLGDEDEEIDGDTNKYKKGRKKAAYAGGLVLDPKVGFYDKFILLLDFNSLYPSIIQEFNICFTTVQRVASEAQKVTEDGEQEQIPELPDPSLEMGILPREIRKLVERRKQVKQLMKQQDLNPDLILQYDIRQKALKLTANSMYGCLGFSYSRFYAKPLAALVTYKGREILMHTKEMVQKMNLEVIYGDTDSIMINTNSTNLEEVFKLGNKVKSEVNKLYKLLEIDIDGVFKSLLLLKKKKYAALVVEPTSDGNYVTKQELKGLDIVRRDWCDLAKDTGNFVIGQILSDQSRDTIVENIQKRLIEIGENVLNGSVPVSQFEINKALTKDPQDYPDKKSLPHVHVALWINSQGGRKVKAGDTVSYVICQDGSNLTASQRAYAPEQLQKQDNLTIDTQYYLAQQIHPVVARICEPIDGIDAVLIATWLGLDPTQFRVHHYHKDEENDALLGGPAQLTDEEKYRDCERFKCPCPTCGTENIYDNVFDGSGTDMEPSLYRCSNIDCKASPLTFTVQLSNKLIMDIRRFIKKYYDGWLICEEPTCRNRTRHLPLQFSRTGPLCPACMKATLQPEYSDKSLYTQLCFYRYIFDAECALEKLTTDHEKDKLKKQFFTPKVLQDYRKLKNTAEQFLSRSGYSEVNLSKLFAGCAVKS

For interferon alpha 2b, the “reduction in viral titer” value [1] was 0.1 log, the EC50 (BVDV [2]) was 2.6 IU per ml and the viral reduction (BVDV [2]; even at 1000 IU per ml) was no more than 2 logs. For the same molecule, the “sensitivity of the mutant relative to wild-type” value (S405T mutant BVDV) was roughly 40 fold and the “reduction in virus titer” value [3] was “approximately 0.1 log10”.

With `NC(=O)c1ncn([C@@H]2O[C@H](CO)[C@@H](O)[C@H]2O)n1` [ribavirin, 1-β-D-ribofuranosyl-1-1,2,4-triazole-3-carboxamide] the “Incorporated drug amount, DNA” value (HepG2 cells [4]) was 0.0120^b pmole/μg DNA, the “Incorporated drug amount, RNA” value (HepG2 cells [4]) was 0.0132^c pmole/μg RNA and the “incorporation into both DNA and RNA, level relative to mCyd” value (HepG2 cells [4]; higher than mCyd) was 10 fold. For the same molecule, the “effect on serum levels of HCV-RNA” value (HCV) was “does not lower serum levels of HCV-RNA”, the “patients with serum amino transferase levels reduced to normal” value (HCV) was 40% and the CC50 [5] was 36 µM.

For `Nc1ccn([C@H]2CC[C@@H](CO)O2)c(=O)n1` [ddC, zalcitabine, reference compound], the “Electron Microscopy, Lipid Droplet Form.” value (HepG2 cells [6]) was “Positive”, the “Electron Microscopy, Mito. Morphol.” value (HepG2 cells [6]) was “Loss of Cristae” and the “Incorporated drug amount, DNA” value (HepG2 cells [4]) was 0.0055 pmole/μg DNA and 0.0055^b pmole/μg DNA. For the same molecule, the “Incorporated drug amount, RNA” value (HepG2 cells [4]) was 0.0013 pmole/μg RNA and 0.0013^b pmole/μg RNA, the “mtDNA/nuclear DNA (% of Control)” value (HepG2 cells [7]; 6 day treatment) was 44.3 ± 9.3 % of Control and the “mtDNA/nuclear DNA (% of Control)” value (HepG2 cells [7]; 14 day treatment) was 19.6 ± 8.2 % of Control. For the same molecule, the “reduction of mitochondrial DNA content” value (HepG2 cells [7]; 6 days) was 56% and the “reduction of mitochondrial DNA content” value (HepG2 cells [7]; 14 days) was 80%.

`C[C@@]1(O)[C@H](O)[C@@H](COP(=O)(O)OP(=O)(O)OP(=O)(O)O)O[C@H]1n1ccc(N)nc1=O` [mCyd-TP, 2′-C-methyl-cytidine-5′-triphosphate] showed an IC50 (human DNA polymerase γ) of no less than 929 µM and an IC50 (human DNA polymerase β) of no less than 883 µM.

`Cc1c2oc3c(C)ccc(C(=O)N[C@@H]4C(=O)N[C@H](C(C)C)C(=O)N5CCC[C@H]5C(=O)N(C)CC(=O)N(C)[C@@H](C(C)C)C(=O)O[C@@H]4C)c3nc-2c(C(=O)N[C@@H]2C(=O)N[C@H](C(C)C)C(=O)N3CCC[C@H]3C(=O)N(C)CC(=O)N(C)[C@@H](C(C)C)C(=O)O[C@@H]2C)c(N)c1=O` [Act. D, actinomycin D] (I: T[dV]P[Sar][NMeV] / II: T[dV]P[Sar][NMeV]; ester I:1-I:C, II:1-II:C; linker I:N-II:N via Actinocin(9to1)) gave an IC50 (human DNA polymerase γ) of 15.5 ± 4 µM, an IC50 (human DNA polymerase β) of 7.9 ± 3 µM and an IC50 (human DNA polymerase α) of 5.8 ± 3.1 µM.

With `C[C@@]1(O)[C@H](O)[C@@H](CO)O[C@H]1n1ccc(=O)[nH]c1=O` [Compound N, β-D-2′-C-methyl-uracil] the EC50 (Sb-1) was 55 µM, the EC50 (YFV) was 100 µM and the EC50 (BVDV [8]) was 18 µM. The CC50 [9] was greater than 100 µM, the EC50 (CVB-2; read-out: CVB-2) was greater than 100 µM and the “result in cytotoxicity tests” value [10] was “negative”. For the same molecule, the EC50 (REO-1; read-out: REO) was greater than 100 µM, the “antiviral activity against a wide spectrum of other viruses” value [11] was “essentially no antiviral activity” and the EC50 (DENV 2) was no less than 100 µM. For the same molecule, the “potency against BVDV relative to mCyd” value (BVDV [12]) was “about 10 fold”, the “mUrd in sera samples” value [13] was “No mUrd was detected” and the EC50 (WNV) was 80 µM.

`Nc1ccn([C@H]2CC[C@@H](COP(=O)(O)OP(=O)(O)OP(=O)(O)O)O2)c(=O)n1` [ddC-TP] gave an IC50 (human DNA polymerase γ) of 2.7 ± 1 µM, an IC50 (human DNA polymerase β) of 4.8 ± 1 µM and an IC50 (human DNA polymerase α) of 78 ± 23.4 µM.

In the case of `Cc1cn([C@@H]2O[C@](C)(CO)[C@@H](O)[C@H]2O)c(=O)[nH]c1=O`, the melting point is reported as 258 to 260 °C (dec.).

For `O=c1[nH]c(=O)n([C@@H]2O[C@H](CO)[C@@H](O)[C@@H]2F)cc1I` [FIAU, 1,-2′-deoxy-2′-fluoro-1-β-D-arabinofuranosyl-5-iodo-uracil], the “increase in lactic acid production over control cells” value (HepG2 cells [14]) is listed as 100%.

`CC(C)[C@H](N)C(=O)OC[C@H]1O[C@@H](n2cnc3c(=O)[nH]c(N)nc32)[C@](C)(O)[C@@H]1OC(=O)[C@@H](N)C(C)C` [Compound E, 3′,5′-di-O-valinyl ester of β-D-2′-C-methyl-guanosine] gave an EC50 (Sb-1) of 55 µM, a CC50 [15] greater than 100 µM and an EC50 (CVB-3) of 30 µM. For the same molecule, the EC50 (CVA-9) was 40 µM, the EC50 (YFV) was 1 µM and the EC50 (BVDV [8]) was 4.9 µM. It also gave a CC50 [9] greater than 100 µM, an EC50 (CVB-2; read-out: CVB-2) of 33 µM and an EC50 (CVB-2; read-out: EC50 CVB-2) of 33 µM. It also gave an EC50 (CVB-4) of 35 µM, an EC50 (REO-1; read-out: EC50 REO-1) of 2 µM and an EC50 (REO-1; read-out: REO) of 2.1 µM. The CC50 (BHK) was 100 µM, the EC50 (DENV 2) was 1.4 µM and the EC50 (WNV) was 1 µM.

With `C[C@@]1(O)[C@H](O)[C@@H](CO)O[C@H]1n1cnc2c(=O)[nH]c(N)nc21` [Compound C, β-D-2′-C-methyl-guanosine] the EC50 (Sb-1) was 50 µM, the CC50 [15] was greater than 100 µM and the EC50 (CVB-3) was 22 µM. For the same molecule, the EC50 (CVA-9) was 46 µM, the EC50 (YFV) was 1.2 µM and the EC50 (BVDV [8]) was 3.5 µM. For the same molecule, the CC50 [9] was greater than 100 µM, the EC50 (CVB-2; read-out: CVB-2) was 29 µM and the EC50 (CVB-2; read-out: EC50 CVB-2) was 30 µM. The EC50 (CVB-4) was 12 µM, the EC50 (REO-1; read-out: EC50 REO-1) was 2 µM and the EC50 (REO-1; read-out: REO) was 2 µM. The CC50 (BHK) was 100 µM, the EC50 (DENV 2) was 1.4 µM and the EC50 (WNV) was 0.6 µM.

For `C[C@]1(CO)O[C@@H](n2cnc3c(N)ncnc32)[C@H](O)[C@@H]1O`, the melting point was 96 to 97 °C (dec.).

For `C[C@]1(CO)O[C@@H](n2ccc(=S)[nH]c2=O)[C@H](O)[C@@H]1O`, the melting point was 65 to 70 °C (dec.).
